pIC50: −log10 of the molar value. “And” between values parts separate entries of the source, which are not always exact repeats. Identical values can stand only once. Like-named read-outs stand apart in the source and are kept apart here.
How the values were obtained:
topoisomerase II α [1] = target: T1, topoisomerase II α (Homo sapiens, UniProt P11388); assay: Band depletion assay (extractable topoisomerase II α, western blot); format: cell-based; parameters: OC—NYH cells were exposed to increasing concentrations of NSC 35866 for one hour and total proteins were extracted at 0.3 M NaCl; endogenous in cells; host or cells: human small cell lung cancer OC-NYH cells; conditions: OC—NYH cells, one hour
Description: Band depletion assay was performed essentially as described in Sehested et al., 1998. The amount of extractable topoisomerase II α was detected by the ECL detection method (Amersham, Buckinghamshire, United Kingdom). OC—NYH cells were exposed to increasing concentrations of NSC 35866 for one hour and total proteins were extracted at 0.3 M NaCl. For detection of topoisomerase II α, a polyclonal primary antibody (Bio Trend, Cologne, Germany) was used. Horseradish peroxidase linked anti-rabbit antibody (Amersham, Buckinghamshire, United Kingdom) was used as secondary antibody.
FIG. 10 describes the results of studies of the ability of NSC 35866 to trap human topoisomerase II α as a non-extractable complex on DNA in a dose dependent manner. The ability of NSC 35866 to stabilise topoisomerase II α as a non-extractable complex on DNA in human SCLC OC—NYH cells was assessed using the band depletion assay as described herein. The amounts of topoisomerase II α was visualised by western blotting using a topoisomerase II α specific primary antibody: Lane 1, no drug; Lane 2, 200 μM ICRF-187; Lane 3, 200 μM NSC 35866; Lane 4, 500 μM NSC 35866; Lane 5, 1000 μM NSC 35866. Band depletion of the topoisomerase II α isoform caused by NSC 35866 was detected in two independent experiments.

topoisomerase II α [2] = target: T1, topoisomerase II α; assay: Topoisomerase II ATPase assay (coupled, NADH oxidation); format: biochemical; parameters: made in house; host or cells: yeast (over-expressing yeast cells)
Description: The reaction was monitored spectrophotometrically at 340 nm using a Bio-Tek EL808 Ultra Micro plate Reader connected to a computer with KC4 Software installed (Bio-Tek Instruments, U.S.). The change in absorbance was related to ADP production using A340^1M=6220 cm^−1. […] The rate of ATP hydrolysis, V, was determined from the linear part of the curve.
The steady-state rate of ATP hydrolysis was determined using a coupled ATPase assay as described herein. […] Error bars represent SEM of two independent experiments each performed in duplicate.
The steady-state rate of ATP hydrolysis was determined as described in for FIG. 3 and as described herein. In this analysis, the rate of ATP hydrolysis in the absence of drug was set to one in all experiments. Error bars represent SEM of 2 or 3 independent experiments each preformed in duplicate.

topoisomerase II α [3] = target: T1, topoisomerase II α; assay: Topoisomerase II retention on DNA/streptavidin beads (salt-stable complex); format: biochemical; parameters: made in house; host or cells: yeast (over-expressing yeast cells)
Description: An assay capable of measuring non-covalent complexes of topoisomerase II on closed circular DNA was performed as described in Morris et al., 2000, with modifications. When performing six reactions, 60 μL M280 streptavidin coated bead (Dynal A/S, Oslo, Norway) slurry corresponding to 600 μg beads was transferred to a 1.5 mL tube that was then placed in a Dynal MPC-E (magnetic particle concentrator) rack (Dynal A/S, Oslo, Norway) for 1 to 2 minutes until the beads had settled on the tube wall. The beads were then washed twice in the DNA binding solution supplied with the kilobase binding kit (Dynal A/S, Oslo, Norway) by repeating this step. Finally, the beads were re-suspended in 250 μL DNA binding solution. A preparation of biotin labelled plasmid DNA containing a 5-kb super coiled circular DNA molecule carrying 8 successive PNA (Peptide Nucleic Acid) linked biotin labels at one known position (pGeneGrip biotin blank vector, Gene Therapy Systems Inc., San Diego, Calif., USA) was made by mixing 220 μL distilled water and 30 μL biotinylated DNA. After mixing the beads and the DNA preparation, the sample was left overnight at room temperature under gentle agitation to assure optimal formation of the DynaBeads DNA complex. Next, the complex was washed twice in 480 μL wash buffer (10 mM TRIS-HCL, pH 7.5, 2 M NaCl, 1 mM EDTA), once in distilled water, and once in topoisomerase reaction buffer (10 mM TRIS-HCl, pH 7.9, 50 mM NaCl, 50 mM KCl, 5 mM MgCl2, 1 mM EDTA, […] BSA). Then, the beads were re-suspended in 600 μL topoisomerase II buffer and divided into 6 tubes. 100 μL reactions containing plasmid DNA coated DynaBeads, topoisomerase II buffer, 2 μg purified human topoisomerase […] and drugs were incubated for 30 minutes at 37° C. When included, ATP was present at 1 mM. […]
FIG. 7 describes the results of studies of the ability of NSC 35866 to stabilise a salt-stable complex of human topoisomerase II α on covalently closed circular DNA. Retention of salt-stable (to 2 M KCl) complexes of human topoisomerase II α on circular DNA attached to magnetic beads via biotin-streptavidin linkage was determined by eluting retained protein by adding running buffer containing 4% SDS followed by heating to 100° C. for 10 minutes. The amount of human topoisomerase II α protein retained was then determined by running the samples on 7% SDS-PAGE gels followed by straining with GelCode Blue Strain Reagent (Pierce, Rockford, Ill., USA): Lane 1, no drug; Lane 2, 200 μM ICRF-187; Lane 3, 30 μM NSC 35866; Lane 4, 100 μM NSC 35866; Lane 5, 300 μM NSC 35866; Lane 6, 1000 μM NSC 35866; Lane K, 2 μg human topoisomerase II α. […]

T1 sequence (P11388 whole entry): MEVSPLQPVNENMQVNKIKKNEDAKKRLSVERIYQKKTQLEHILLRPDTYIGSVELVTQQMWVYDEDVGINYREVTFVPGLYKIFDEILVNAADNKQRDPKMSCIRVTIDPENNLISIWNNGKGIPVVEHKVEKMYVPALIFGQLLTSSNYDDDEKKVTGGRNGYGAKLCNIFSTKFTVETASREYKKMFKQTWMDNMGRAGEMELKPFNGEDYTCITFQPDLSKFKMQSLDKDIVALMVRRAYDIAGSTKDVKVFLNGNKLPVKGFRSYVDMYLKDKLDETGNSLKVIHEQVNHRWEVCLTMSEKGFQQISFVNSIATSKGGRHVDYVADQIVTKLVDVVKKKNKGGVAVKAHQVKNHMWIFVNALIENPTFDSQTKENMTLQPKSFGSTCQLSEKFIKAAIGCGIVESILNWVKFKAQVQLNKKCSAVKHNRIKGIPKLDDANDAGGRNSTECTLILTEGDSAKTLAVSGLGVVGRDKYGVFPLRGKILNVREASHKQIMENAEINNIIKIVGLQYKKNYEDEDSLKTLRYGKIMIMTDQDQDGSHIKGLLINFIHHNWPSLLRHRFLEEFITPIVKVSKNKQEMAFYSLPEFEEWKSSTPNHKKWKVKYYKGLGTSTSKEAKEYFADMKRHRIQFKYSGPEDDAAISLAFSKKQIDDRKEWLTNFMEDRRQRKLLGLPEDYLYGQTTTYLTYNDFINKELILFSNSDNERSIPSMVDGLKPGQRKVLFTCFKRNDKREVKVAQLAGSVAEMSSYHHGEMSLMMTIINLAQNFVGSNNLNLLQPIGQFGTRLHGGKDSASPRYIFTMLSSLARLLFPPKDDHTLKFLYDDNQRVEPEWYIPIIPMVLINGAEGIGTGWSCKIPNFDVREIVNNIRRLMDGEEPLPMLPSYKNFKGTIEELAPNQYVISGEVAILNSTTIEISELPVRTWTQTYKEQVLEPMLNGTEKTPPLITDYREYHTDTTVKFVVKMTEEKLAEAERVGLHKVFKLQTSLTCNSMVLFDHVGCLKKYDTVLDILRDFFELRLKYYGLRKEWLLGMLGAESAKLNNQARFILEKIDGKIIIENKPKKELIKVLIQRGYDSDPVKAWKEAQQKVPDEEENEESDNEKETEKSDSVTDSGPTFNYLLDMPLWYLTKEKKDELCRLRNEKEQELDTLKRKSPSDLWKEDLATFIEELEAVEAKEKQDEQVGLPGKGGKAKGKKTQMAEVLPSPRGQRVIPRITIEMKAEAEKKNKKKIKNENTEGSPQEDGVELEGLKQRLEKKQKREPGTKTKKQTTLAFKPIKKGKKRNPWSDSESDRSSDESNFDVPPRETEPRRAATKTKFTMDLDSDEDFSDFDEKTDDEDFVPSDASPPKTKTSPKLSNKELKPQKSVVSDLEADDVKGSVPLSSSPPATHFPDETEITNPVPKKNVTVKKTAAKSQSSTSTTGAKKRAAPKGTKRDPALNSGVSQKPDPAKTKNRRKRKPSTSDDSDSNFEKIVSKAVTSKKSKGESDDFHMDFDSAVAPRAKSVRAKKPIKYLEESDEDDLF

In the case of `Nc1nc(SCCc2ccccc2)c2nc[nH]c2n1` [NSC 35866, 2-amino-6-(phenylethylthio)-purine], the “effect on amount of extractable topoisomerase II α, in words” value (“effect on amount” for short) (topoisomerase II α [1]; 200 μM) was “no effect”, the “effect on amount” value (topoisomerase II α [1]; 500 μM) was “reduced the amount of extractable topoisomerase II” and the “effect on amount” value (topoisomerase II α [1]; 1000 μM) was “reduced the amount of extractable topoisomerase II”. The inhibition at 300 µM (topoisomerase II α [2]; 300 μM, in the presence of DNA, read-out: inhibition of the total ATPase activity) was 75%, the “inhibition of ATPase activity in the presence of DTT, in words” value (topoisomerase II α [2]; 10 mM DTT in the reaction buffer) was “could inhibit ATPase activity” and the pIC50 (topoisomerase II α [2]; in the presence of DNA (DNA-stimulated), read-out: IC50, inhibition of ATPase activity) was 4.30 and 4.00 to 4.52. For the same molecule, the pIC50 (topoisomerase II α [2]; without DNA, read-out: IC50, inhibition of DNA-independent ATPase activity) was 3.52, the “retention of topoisomerase II on DNA beads after 2 M KCl wash, in words” value (topoisomerase II α [3]; 30, 100, 300 and 1000 μM, with ATP) was “traps human topoisomerase II α as a salt-stable complex on circular closed DNA in a dose-dependent manner” and the “retention of topoisomerase II on DNA beads, in words” value (topoisomerase II α [3]; in the absence of ATP) was “only at 300 and 1000 μM”.
